According to ChEMBL document CHEMBL1154194, “Glucose-containing flavones--their synthesis and antioxidant and neuroprotective activities” (Bioorg Med Chem Lett, 2009):

Key:
[1] = test system: Liver; experiment: Antioxidant activity in rat liver homogenate assessed as inhibition of iron-ascorbic acid mix-induced lipid peroxidation by TBARS assay; assay type: functional, tissue-based
[2] = Antioxidant activity assessed as inhibition of xanthine/xanthine oxidase system-induced superoxide anion radical scavenging activity after 20 mins; assay type: functional
[3] = test system: Radical scavenging activity; experiment: Antioxidant activity assessed as DPPH radical scavenging activity after 30 mins; assay type: functional
[4] = species on record: Rattus norvegicus; experiment: (§1) Neuroprotective activity against H2O2-induced neuronal damage in Sprague-Dawley rat cerebral cortical cells after 20 to 24 hrs by MTT assay; assay type: functional
[5] = as §1; assay type: functional

| Structure (SMILES) | IC50 [1] | IC50 [2] | IC50 [3] | Activity [4] | IC50 [5] |
| --- | --- | --- | --- | --- | --- |
| COc1c(-c2ccc(O)c(O)c2)oc2cc(OCCOC[C@@H]3OC(O)[C@@H](O)[C@H](O)[C@H]3O)cc(O)c2c1=O (stereo partly specified) | 78 µM | 12.8 µM | 15.6 µM | Dose-dependent effect | 58.4 µM |
| COc1c(-c2ccc(O)c(O)c2)oc2cc(OC3O[C@@H](CO)[C@H](O)[C@@H](O)[C@@H]3O)cc(O)c2c1=O (stereo partly specified) | 43.2 µM | 10.2 µM | 16.9 µM | Dose-dependent effect | 30.7 µM |
| O=C1O[C@H]([C@@H](O)CO)C(O)=C1O [ASCORBIC ACID] | > 300 µM | > 300 µM | 41 µM |  |  |
| O=C(COc1cc(O)c2c(=O)cc(-c3ccc(O)c(O)c3)oc2c1)OC[C@@H]1OC(O)[C@@H](O)[C@H](O)[C@H]1O (stereo partly specified) | 47.9 µM | 6.22 µM | 16.7 µM | Dose-dependent effect | 12.7 µM |
| COc1c(-c2ccc(O)c(O)c2)oc2cc(O)cc(O)c2c1=O [3-O-METHYLQUERCETIN] | 19 µM | 17.4 µM | 14.2 µM |  | 3.5 µM |
| O=c1cc(-c2ccc(O)c(O)c2)oc2cc(O)cc(O)c12 [LUTEOLIN] | 24.7 µM | 8.66 µM | 16.2 µM |  | 3.75 µM |
| COc1c(-c2ccc(O)c(O)c2)oc2cc(OCC(=O)OC[C@@H]3OC(O)[C@@H](O)[C@H](O)[C@H]3O)cc(O)c2c1=O (stereo partly specified) | 66.7 µM | 32.9 µM | 19.7 µM | Dose-dependent effect | 5.34 µM |
| O=c1cc(-c2ccc(O)c(O)c2)oc2cc(OCCOC[C@@H]3OC(O)[C@@H](O)[C@H](O)[C@H]3O)cc(O)c12 (stereo partly specified) | 47.8 µM | 3.53 µM | 18.5 µM | Dose-dependent effect | 15.7 µM |
| O=c1cc(-c2ccc(O)c(O)c2)oc2cc(OC3O[C@@H](CO)[C@H](O)[C@@H](O)[C@@H]3O)cc(O)c12 (stereo partly specified) | 40.4 µM | 3.28 µM | 17.3 µM | Dose-dependent effect | 7.33 µM |
